Reference: patent publication US20220213082A1, “PRODRUG OF CASPASE INHIBITOR” (LG CHEM, LTD., priority 2019, published 2022)

System: recombinant human carboxylesterases (CE1b, CE1c and CE2)
Test: Hydrolysis test by hydrolase (recombinant human carboxylesterases)
Assay type: in vitro ADME
Protocol: Various recombinant human carboxylesterases (CE1b, CE1c and CE2) were prepared in order to confirm the hydrolysis tendency of the prodrug by carboxylesterase (CE) which is a hydrolase. The initial enzyme concentration provided by the manufacturer was 5 mg/mL, which was diluted 1/50 in 100 mM potassium phosphate buffer to obtain a protein solution of 100 μg/mL. For the compound of Example 1—which is a prodrug compound to be tested, 5 mg/mL DMSO stock was used as a working solution, which was diluted 1/100 in acetonitrile to obtain 50 μg/mL concentration solution, and again diluted to a concentration of 1/100 in 100 mM potassium phosphate buffer to obtain a drug solution with a final concentration of 500 ng/mL. […] The samples were deproteinized with acetonitrile containing an internal standard (IS) and centrifuged, and the supernatant was injected into LC-MS/MS for analysis. By correcting the obtained peak area of the prodrug with the peak area of IS, the peak response at the time of collection of each sample was obtained, and the residual ratio (% remaining) compared to the initial value was converted. […]
Such result is analyzed that the compound of Example 1 was hydrolyzed by an esterase present in the reaction system and converted into a compound of Formula 2, which is the parent drug.

## CC(=O)O[C@]1(CF)OC(=O)C[C@@H]1NC(=O)[C@]1(C(C)C)CC(c2nccc3ccccc23)=NO1 [Example 1, (2S,3S)-2-(fluoromethyl)-3-((R)-5-isopropyl-3-(isoquinolin-1-yl)-4,5-dihydroisoxazole-5-carboxamido)-5-oxotetrahydrofuran-2-yl acetate]
CE1b, CE1c, CE2 compared
  contribution of each human recombinant CE isozyme to hydrolysis into compound of Formula 2: greater by CE1b and CE1c than by CE2
Spiked with human recombinant CE isozyme, after reaction for 60 minutes, LC-MS/MS
  residual ratio (% remaining) of prodrug: most of the prodrug was lost
